In ChEMBL document CHEMBL1201862, “PubChem BioAssay data set” (2004):
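A five-concentration, 48-hour dose response in 96-well plates underlies each endpoint, interpolated linearly between surrounding concentrations. GI50: concentration for 50% inhibition of growth.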 Calls of active or inactive are those of the source. No stated cut-off is given here; in the data, active = GI50 up to about 1.1 µM and inactive = higher.

Columns and labels:
Assay in all cases: inhibition of tumour cell growth, NCI panel, 48 h
[1] = system: SK-MEL-28
[2] = system: TK-10
[3] = system: OVCAR-5
[4] = system: Malme-3M
[5] = system: CAKI-1
[6] = system: HOP-62
[7] = system: SK-MEL-2
[8] = system: UACC-257
[9] = system: SW-620
[10] = system: A498
[11] = system: HOP-18
[12] = system: SNB-19
[13] = system: OVCAR-3
[14] = system: UACC-62
[15] = system: LXFL 529
[16] = system: HL-60
[17] = system: HOP-92
[18] = system: SF-295
[19] = system: UO-31
[20] = system: HCT-15
[21] = system: DMS-273
[22] = system: NCI-H522
[23] = system: DLD-1
[24] = system: 786-0
[25] = system: ACHN
[26] = system: NCI/ADR-RES
[27] = system: SK-MEL-5
[28] = system: SF-539
[29] = system: M14
[30] = system: OVCAR-4
[31] = system: XF498
[32] = system: KM12
[33] = system: NCI-H460
[34] = system: NCI-H226
[35] = system: RXF 631
[36] = system: DMS-114
[37] = system: CCRF-CEM
[38] = system: HT-29
[39] = system: A549
[40] = system: LOX IMVI
[41] = system: IGROV-1
[42] = system: EKVX
[43] = system: SNB-75
[44] = system: NCI-H23
[45] = system: K562
[46] = system: HCC 2998
[47] = system: RPMI-8226
[48] = system: SN12C
[49] = system: M19-MEL
[50] = system: HCT-116
[51] = system: U-251
[52] = system: SNB-78
[53] = system: SR
[54] = system: KM-20L2
[55] = system: SK-OV-3
[56] = system: OVCAR-8
[57] = system: MOLT-4
[58] = system: RXF 393
[59] = system: SF-268
[60] = system: COLO 205

C=C(NC(=O)C(=C)NC(=O)c1csc(C2=NC3c4csc(n4)C4NC(=O)c5csc(n5)C(C(C)(O)C(C)O)NC(=O)C5CSC(=N5)/C(=C/C)NC(=O)C(C(C)O)NC(=O)c5csc(n5)C3(CC2)NC(=O)C(C)NC(=O)C(=C)NC(=O)C(C)NC(=O)C(C(C)CC)NC2C=Cc3c(C(C)O)cc(nc3C2O)C(=O)OC4C)n1)C(N)=O (stereo not drawn) was tested, and the GI50 [1] was 1.27 µM (inactive), the GI50 [2] was 2.75 µM (inactive) and the GI50 [3] was 11.8 µM (inactive). For the same molecule, the GI50 [4] was 1.63 µM (inactive), the GI50 [5] was 2.92 µM (inactive) and the GI50 [6] was 9.35 µM (inactive). For the same molecule, the GI50 [7] was 1.65 µM (inactive), the GI50 [8] was 1.75 µM (inactive) and the GI50 [9] was 0.412 µM (active). For the same molecule, the GI50 [10] was 1.74 µM (inactive), the GI50 [11] was 2.72 µM (inactive) and the GI50 [12] was 2.69 µM (inactive). For the same molecule, the GI50 [13] was 1.75 µM (inactive), the GI50 [14] was 1.24 µM (inactive) and the GI50 [15] was 0.449 µM (active). For the same molecule, the GI50 [16] was 2.69 µM (inactive), the GI50 [17] was 1.7 µM (inactive) and the GI50 [18] was 4 µM (inactive). For the same molecule, the GI50 [19] was > 78.3 µM (inactive), the GI50 [20] was 4.12 µM and the GI50 [21] was 1.37 µM (inactive). For the same molecule, the GI50 [22] was 0.287 µM (active), the GI50 [23] was 1.76 µM (inactive) and the GI50 [24] was 1.54 µM (inactive). For the same molecule, the GI50 [25] was 2.32 µM (inactive), the GI50 [26] was > 58.3 µM (inactive) and the GI50 [27] was 1.34 µM (inactive). For the same molecule, the GI50 [28] was 1.73 µM (inactive), the GI50 [29] was 1.67 µM (inactive) and the GI50 [30] was 19.9 µM (inactive). For the same molecule, the GI50 [31] was 0.355 µM (active), the GI50 [32] was 1.93 µM (inactive) and the GI50 [33] was 1.72 µM (inactive). The GI50 [34] was 1.9 µM (inactive), the GI50 [35] was 3.61 µM (inactive) and the GI50 [36] was 2.72 µM (inactive). The GI50 [37] was 0.297 µM (active), the GI50 [38] was 1.43 µM (inactive) and the GI50 [39] was 4.57 µM (inactive). The GI50 [40] was 1.08 µM (active), the GI50 [41] was 9.06 µM (inactive) and the GI50 [42] was 18.2 µM (inactive). The GI50 [43] was 1.82 µM (inactive), the GI50 [44] was 2.79 µM (inactive) and the GI50 [45] was 0.726 µM (active). The GI50 [46] was 6.67 µM (inactive), the GI50 [47] was 0.644 µM (active) and the GI50 [48] was 1.94 µM (inactive). The GI50 [49] was 1.37 µM (inactive), the GI50 [50] was 0.51 µM (active) and the GI50 [51] was 1.57 µM (inactive). For the same molecule, the GI50 [52] was 2.54 µM (inactive), the GI50 [53] was 0.302 µM (active) and the GI50 [54] was 2.84 µM (inactive). The GI50 [55] was 15 µM (inactive).

For CC(CN(C)C)C(=O)c1ccccc1 (stereo not drawn), the GI50 [1] was > 41.7 µM (inactive), the GI50 [2] was > 100 µM (inactive) and the GI50 [3] was 32.3 µM (inactive). For the same molecule, the GI50 [4] was 24.3 µM (inactive), the GI50 [5] was 3.43 µM (inactive) and the GI50 [6] was > 100 µM (inactive). For the same molecule, the GI50 [7] was 22.7 µM (inactive), the GI50 [8] was > 48.6 µM (inactive) and the GI50 [9] was 12.9 µM (inactive). For the same molecule, the GI50 [10] was > 46.1 µM (inactive), the GI50 [11] was > 100 µM (inactive) and the GI50 [12] was > 77.3 µM (inactive). The GI50 [13] was 42.4 µM (inactive), the GI50 [14] was 35.8 µM (inactive) and the GI50 [56] was 31.6 µM (inactive). The GI50 [15] was 18 µM (inactive), the GI50 [16] was 15.9 µM (inactive) and the GI50 [17] was 2.33 µM (inactive). The GI50 [18] was > 100 µM (inactive), the GI50 [57] was 8.22 µM (inactive) and the GI50 [19] was > 31.6 µM (inactive). For the same molecule, the GI50 [20] was 16.6 µM, the GI50 [21] was > 100 µM (inactive) and the GI50 [22] was 2.04 µM (inactive). For the same molecule, the GI50 [23] was 8.97 µM (inactive), the GI50 [24] was 22.6 µM (inactive) and the GI50 [25] was 24.8 µM (inactive). The GI50 [27] was > 82.4 µM (inactive), the GI50 [28] was 51.8 µM (inactive) and the GI50 [29] was 24.7 µM (inactive). For the same molecule, the GI50 [30] was > 41.1 µM (inactive), the GI50 [31] was 21.3 µM (inactive) and the GI50 [32] was 18.2 µM (inactive). The GI50 [33] was > 78.7 µM (inactive), the GI50 [34] was > 100 µM (inactive) and the GI50 [35] was > 86.3 µM (inactive). For the same molecule, the GI50 [36] was 26.6 µM (inactive), the GI50 [58] was 22.8 µM (inactive) and the GI50 [37] was 3.78 µM (inactive). The GI50 [38] was 20 µM (inactive), the GI50 [39] was > 65.3 µM (inactive) and the GI50 [40] was 14.9 µM (inactive). The GI50 [41] was > 100 µM (inactive), the GI50 [59] was 30.3 µM (inactive) and the GI50 [60] was 31.6 µM (inactive). For the same molecule, the GI50 [42] was > 50.7 µM (inactive), the GI50 [43] was > 83.9 µM (inactive) and the GI50 [44] was 24.9 µM (inactive). The GI50 [45] was 5.02 µM (inactive), the GI50 [46] was 26.6 µM (inactive) and the GI50 [47] was 0.94 µM (active). The GI50 [48] was 17.6 µM (inactive), the GI50 [49] was 19.1 µM (inactive) and the GI50 [50] was 28.8 µM (inactive). The GI50 [51] was > 100 µM (inactive), the GI50 [52] was 31 µM (inactive) and the GI50 [53] was 19.6 µM (inactive). For the same molecule, the GI50 [54] was > 51.8 µM (inactive).
